From ChEMBL document CHEMBL1157335, “Aromatic constituents of Uvaria grandiflora” (J Nat Prod, 2006)
≈ marks a conversion by molar mass, not a printed value.

Test system: Leishmania donovani
Test: Antileishmanial activity against Leishmania donovani promastigotes after 48 hrs by alamar blue assay
Format: functional, organism-based

C[C@@H]1[C@H](O)[C@@H](C)/C=C/C=C/C=C/C=C/C=C/C=C/C=C/[C@H](O[C@@H]2O[C@H](C)[C@@H](O)[C@H](N)[C@@H]2O)C[C@@H]2O[C@](O)(C[C@@H](O)C[C@@H](O)[C@H](O)CC[C@@H](O)C[C@@H](O)CC(=O)O[C@H]1C)C[C@H](O)[C@H]2C(=O)O [AMPHOTERICIN B]
IC90: 0.34 µg/mL (≈ 0.368 µM)

CC(=O)O[C@H]1C(=O)C=COC=C1COC(=O)c1ccccc1 [GRANDIUVARONE A]
IC50: 0.7 µg/mL (≈ 2.32 µM)
IC90: 1.5 µg/mL (≈ 4.96 µM)

N=C(N)c1ccc(OCCCCCOc2ccc(C(=N)N)cc2)cc1 [PENTAMIDINE]
IC90: 6.6 µg/mL (≈ 19.4 µM)
